Assay results as given in patent publication US20230330040A1, “IMMUNOLOGICAL EFFECTS OF METABOLITES” (The Regents of the University of California, priority 2020, published 2023).
“Also recorded” adds a separate entry of the source.

Assays:
[1] = system: C. elegans var. Bristol (N2); test: C. elegans lifespan analysis; type: in vivo; settings: for lifespan extension versus untreated control worms / lifespan versus spermidine treated worms: lifelong treatment; for lifespan extension versus untreated control worms: 0.2 mM spermidine, 0.5 mM 1-MNA, 0.01 and 0.1 mM PEA, 0.01 mM OEA, b30 prints 100 μM spermidine, 100 μM 1-MNA; for lifespan extension versus Control: lifelong exposure
Protocol: C. elegans var. Bristol (N2), was used as the wild-type strain. Strains were maintained and lifespan assays were performed at 20° C. Twenty-four hours after seeding Escherichia coli (OP50) bacteria on standard NGM plates, the bacteria were killed by 4 min exposure to UV irradiation using a Stratalinker UV crosslinker (Stratagene, Model 2400). The following concentrations of compounds were used: 0.2 mM spermidine, 0.5 mM 1-MNA, 0.01 and 0.1 mM PEA, and 0.01 mM OEA. Spermidine and MNA were diluted into 100 μl sterilized water and applied to the top of the agar medium (3 ml NGM plates). Plates were then gently swirled to allow compounds to spread to the entire NGM surface. Identical solutions of compound-free water were used for the control plates. Plates were then allowed to dry overnight. The procedure was repeated each time worms were transferred to fresh plates (every 2-4 days). PEA and OEA were added to cooled agar, prior to solidification; for the combination, all compounds were added to cooled agar and plates stored at 4° C. Synchronous worm populations were generated by hypochlorite treatment of gravid adults and life span assays were performed beginning at the L4 stage (Day 0). Seven to eight plates of 15 worms each were exposed to the indicated compounds. Animals were transferred to fresh plates every 2 days for the first week and then 3-4 days thereafter. Worms were examined for touch-provoked movement and pharyngeal pumping, until death. Worms that died due to desiccation from crawling on the edge of the plates, were censored. Kaplan-Meier survival curves were created to evaluate C. elegans lifespan. The R package survival (3.1.8) was used to fit the Cox proportional hazards regression model to evaluate differences of survivals between each treatment group versus control.

[2] = system: total cyclooxygenase (COX) activity; test: COX activity assay in LPS stimulated THP-1 macrophage; type: cell-based, human; settings: spermidine 100 μM, 1-MNA 100 μM, PEA 10 nM, OEA 10 μM, Combo = all four
Protocol: For certain assays requiring high cellular concentrations beyond what was feasible to isolate from human volunteers, THP-1 monocytes (ATCC, TIB-202) were cultured in RPMI 1640, 10% FBS, lx PSG and differentiated into M0 macrophage using 100 nM phorbol 12-myristate-13-acetate (PMA) for 2 days followed by incubation with clean RPMI, 10% FBS, 1×PSG for 1 day.
The effect of treatment with participant plasma and individual metabolites on the total cellular COX activity of THP-1 macrophage was measured using a commercially available kit (Cayman Chemical, 760151). In order to induce COX-2 expression, THP-1 macrophage were incubated with 10 ng/mL of lipopolysaccharide (LPS) (Sigma, LPS25) in RPMI, 1×PSG along with 20% participant plasma, or in RMPI, 10% FBS, 1×PSG either alone as a positive control or with isolated metabolites overnight (approximately 18 hrs) before measuring total COX activity from cell lysates. A negative control of macrophage in RPMI, 10% FBS, 1×PSG without LPS was also performed. (Inter CV: 5.4, Intra CV: 12.3)

SMILES | lifespan extension versus untreated control worms [1] | lifespan versus spermidine treated worms [1] | lifespan extension versus Control ([1]; PEA 10 μM (lower concentration)) | lifespan extension versus Control ([1]; PEA 100 μM) | total COX activity versus vehicle treated positive control [2]
C[n+]1cccc(C(N)=O)c1 [1-MNA, 1-methylnicotinamide] | Significant lifespan extension was observed for all metabolites except 1-MNA |  |  |  | 
CCCCCCCC/C=C\CCCCCCCC(=O)NCCO [OEA, oleoylethanolamide] | significantly increased lifespan extension; also recorded: Significant lifespan extension | significantly increased lifespan |  |  | 
CCCCCCCCCCCCCCCC(=O)NCCO [PEA, palmitoylethanolamide] | significantly increased lifespan extension | significantly increased lifespan | most effective at increasing lifespan; also recorded: Significant lifespan extension | Significant lifespan extension | potent inhibitor of COX activity
NCCCCNCCCN [spermidine] | significantly increased lifespan extension; also recorded: Significant lifespan extension |  |  |  | 
